Measured values from US20240277670A1, “SAFE USE OF MMP-12 INHIBITOR” (Foresee Pharmaceuticals Co., Ltd., priority 2021, published 2024).
“Also recorded” adds a separate entry of the source. Read-outs that look alike come from different tables or passages of the source.

Key:
Type in all cases: in vivo, human
[1] = Multiple ascending dose (MAD) part, plasma pharmacokinetics; settings: for CL/F / Kel / AI / CLss/F / Cavg / Cmin / Fl / RAUC2: AUC0-12 (Day 8)/AUC0-inf (Day 1) / AUC(0-t) / AUC(0-inf) / Cmax / half-life / Vd/F: mean; for AUC(0-t) / AUC(0-inf) / Cmax / half-life / Vd/F / Tmax: human, plasma; for Vd/F: read-out: Vz/F; for Tmax: median
Procedure: (§1) Three cohorts of eight subjects each (six on active and two on placebo) were enrolled and received the following treatments orally: 100 mg, 200 mg, and 400 mg ASD-in-Capsule b.i.d. (one dose on Days 1 and 8, twice-daily doses from Days 2 to 7) (FIG. 4).
(§2) Blood samples were collected post-dosing on Day 1 (at 0.5, 1, 2, 3, 4, 6, 8, 12, and 16 hours) and Day 8 (at 0.5, 1, 2, 3, 4, 6, 8, 10, 12, 16, 20, 24, 30, 36, and 48 hours) as well as immediately pre-morning dose on Days 2-7 and 2 hours post-morning dose on Days 4 and 6. Within 15 minutes of collection, blood samples were centrifuged at 2000 rpm for 10 minutes at 4° C., and, subsequently, the plasma was aliquoted, frozen, and stored at −70° C. pending PK analyses.
(§3) The samples were subjected to liquid chromatography followed by analyses by tandem mass spectrometry. The lower limit of quantification for the compound of formula (I) was 5 ng/mL.
(§4) The plasma PK parameters were derived by non-compartmental analyses using Phoenix® WinNonlin® version 6.3 or higher (Pharsight Corporation Inc., Mountain View, CA, USA). PK variables were summarized using arithmetic mean, standard deviation, median, minimum, maximum, the percent coefficient of variation, geometric mean, and a two-sided 95% confidence limit of the arithmetic mean and the geometric mean.

[2] = Multiple ascending dose (MAD) part, safety and tolerability; settings: for Adverse events possibly-related to drug administration: Multiple ascending dose, ASD formulation
Procedure: as §1
(§5) Safety and tolerability were assessed at pre-specified timepoints throughout the studies by AEs reporting, vital signs measurements, physical examination, laboratory tests, and ECG examinations.
(§6) Safety and tolerability data were evaluated for the treated population (all participants who took at least one dose of study medications). […] Descriptive statistics were used to evaluate the for safety and tolerability data and for plasma concentrations and PK parameters of the compound of formula (I).

[3] = Food effect (FE) part, plasma pharmacokinetics; settings: for AUC / AUC(0-inf) / Cmax / AUC(0-t) / half-life / Vd/F / Tmax: human, plasma, po, 200 mg; for AUC: read-out: AUC0- GM; for Vd/F: read-out: Vz/F; for Tmax: median
Procedure: (§7) In this part, eight subjects received 200 mg ASD-in-Capsule orally as a single dose in a randomized way, once under fasting conditions and once after the intake of a high fat breakfast, with a wash-out period of one week between successive dosing (FIG. 4).
as §2, §3, §4
For the evaluations of food effect on the PK profile of the compound of formula (I), the analysis of variance (ANOVA) model included sequence, treatment, and period as fixed effects and subject nested within sequence as a random effect using the SASR mixed model procedure. Each ANOVA included calculation of Least Squares Means (LSM), the difference between LSM under fed condition (Test) over fasted condition (Reference), and the standard error associated with this difference.

[4] = Food effect (FE) part, safety and tolerability; settings: for Adverse events possibly-related to drug administration: 200 mg, ASD formulation
Procedure: as §7, §5, §6

[5] = Treatment A (100 mg ASD-in-Capsule oral), Day 1
[6] = Treatment A (100 mg, b.i.d. Days 2-7), Day 8
[7] = Treatment B (200 mg ASD-in-Capsule oral), Day 1
[8] = Treatment B (200 mg, b.i.d. Days 2-7), Day 8
[9] = Treatment C (400 mg ASD-in-Capsule oral), Day 1
[10] = Treatment C (400 mg, b.i.d. Days 2-7), Day 8
[11] = oral, Treatment A (100 mg, b.i.d. Days 2-7), Day 8
[12] = oral, Treatment B (200 mg, b.i.d. Days 2-7), Day 8
[13] = oral, Treatment C (400 mg, b.i.d. Days 2-7), Day 8
[14] = 200 mg single oral dose, fed over fasted, geometric least-squares mean ratio
[15] = Treatment D: single oral dose 200 mg ASD-in-Capsule, fasted, mean
[16] = Treatment E: single oral dose 200 mg ASD-in-Capsule, fed (high-fat, high-calorie breakfast), mean

`Cc1cccc(COc2ccc(Sc3ccoc3C3NC(=O)NC3=O)cc2)c1` (stereo not shown) [compound of formula (I)] gave a CL/F [1, 5] of 28.7 L/h, a Kel [1, 5] of 0.106 h⁻¹ and an AI [1, 6] of 1.59. The CLss/F [1, 6] was 23.1 L/h, the Cavg [1, 6] was 365 ng/mL and the Cmin [1, 6] was 156 ng/mL. For the same compound, the Fl [1, 6] was 127%, the Kel [1, 6] was 0.0897 h⁻¹ and the “RAUC2: AUC0-12 (Day 8)/AUC0-inf (Day 1)” value ([1]; Treatment A (100 mg, b.i.d. Days 2-7)) was 1.25. It also gave a CL/F [1, 7] of 20.3 L/h, a Kel [1, 7] of 0.119 h⁻¹ and an AI [1, 8] of 1.57. The CLss/F [1, 8] was 16.2 L/h, the Cavg [1, 8] was 1090 ng/mL and the Cmin [1, 8] was 524 ng/mL. For the same compound, the Fl [1, 8] was 132%, the Kel [1, 8] was 0.0895 h⁻¹ and the “RAUC2: AUC0-12 (Day 8)/AUC0-inf (Day 1)” value ([1]; Treatment B (200 mg, b.i.d. Days 2-7)) was 1.26. For the same compound, the CL/F [1, 9] was 24.0 L/h, the Kel [1, 9] was 0.113 h⁻¹ and the AI [1, 10] was 1.40. For the same compound, the CLss/F [1, 10] was 18.2 L/h, the Cavg [1, 10] was 2060 ng/mL and the Cmin [1, 10] was 1010 ng/mL. For the same compound, the Fl [1, 10] was 142%, the Kel [1, 10] was 0.115 h⁻¹ and the “RAUC2: AUC0-12 (Day 8)/AUC0-inf (Day 1)” value ([1]; Treatment C (400 mg, b.i.d. Days 2-7)) was 1.28. For the same compound, the Steady state achieved ([1]; all three dose levels (100, 200, 400 mg b.i.d.)) was ≤ 6 days, the “Increase of Cmax and AUC with dose” value ([1]; from 200 to 400 mg after multiple doses for a week) was “approximately in a dose-proportional manner” and the AUC(0-t) ([1]; oral, 100 mg, Treatment A (100 mg, b.i.d. Days 2-7), Day 8, read-out: AUC0-12) was 4380 ng·h/mL. It also gave an AUC(0-t) ([1]; oral, 200 mg, Treatment B (200 mg, b.i.d. Days 2-7), Day 8, read-out: AUC0-12) of 13100 ng·h/mL, an AUC(0-t) ([1]; oral, 400 mg, Treatment C (400 mg, b.i.d. Days 2-7), Day 8, read-out: AUC0-12) of 24700 ng·h/mL and an AUC(0-inf) [1, 11] of 6180 ng·h/mL. The Cmax [1, 11] was 624 ng/mL, the half-life [1, 11] was 8.37 h and the Vd/F [1, 11] was 277 L. It also gave a Tmax [1, 11] of 2 h, an AUC(0-inf) [1, 12] of 19200 ng·h/mL and a Cmax [1, 12] of 1920 ng/mL. The half-life [1, 12] was 8.14 h, the Vd/F [1, 12] was 189 L and the Tmax [1, 12] was 1.5 h. It also gave an AUC(0-inf) [1, 13] of 36300 ng·h/mL, a Cmax [1, 13] of 3710 ng/mL and a half-life [1, 13] of 6.57 h. For the same compound, the Vd/F [1, 13] was 158 L, the Tmax [1, 13] was 1.5 h and the AUC(0-t) ([1]; po, 100 mg, Treatment A (100 mg ASD-in-Capsule oral), Day 1, read-out: AUC0-12) was 2670 ng·h/mL. The AUC(0-t) ([1]; po, 100 mg, Treatment A (100 mg ASD-in-Capsule oral), Day 1, read-out: AUC0-24) was 3290 ng·h/mL, the AUC(0-t) ([1]; po, 100 mg, Treatment A (100 mg ASD-in-Capsule oral), Day 1, read-out: AUC0-t) was 3290 ng·h/mL and the AUC(0-t) ([1]; po, 200 mg, Treatment B (200 mg ASD-in-Capsule oral), Day 1, read-out: AUC0-12) was 7810 ng·h/mL. The AUC(0-t) ([1]; po, 200 mg, Treatment B (200 mg ASD-in-Capsule oral), Day 1, read-out: AUC0-24) was 9720 ng·h/mL, the AUC(0-t) ([1]; po, 200 mg, Treatment B (200 mg ASD-in-Capsule oral), Day 1, read-out: AUC0-t) was 9710 ng·h/mL and the AUC(0-t) ([1]; po, 400 mg, Treatment C (400 mg ASD-in-Capsule oral), Day 1, read-out: AUC0-12) was 14600 ng·h/mL. For the same compound, the AUC(0-t) ([1]; po, 400 mg, Treatment C (400 mg ASD-in-Capsule oral), Day 1, read-out: AUC0-24) was 18200 ng·h/mL, the AUC(0-t) ([1]; po, 400 mg, Treatment C (400 mg ASD-in-Capsule oral), Day 1, read-out: AUC0-t) was 18200 ng·h/mL and the AUC(0-inf) [1, 5] was 3550 ng·h/mL. It also gave a Cmax [1, 5] of 448 ng/mL, a half-life [1, 5] of 6.9 h and a Vd/F [1, 5] of 291 L. The Tmax [1, 5] was 1 h, the AUC(0-inf) [1, 7] was 10400 ng·h/mL and the Cmax [1, 7] was 1200 ng/mL. For the same compound, the half-life [1, 7] was 6.02 h, the Vd/F [1, 7] was 176 L and the Tmax [1, 7] was 1.02 h. For the same compound, the AUC(0-inf) [1, 9] was 19900 ng·h/mL, the Cmax [1, 9] was 2730 ng/mL and the half-life [1, 9] was 6.48 h. The Vd/F [1, 9] was 212 L, the Tmax [1, 9] was 1 h and the “AUC ratio (Day 8/Day 1)” value ([1]; twice-daily administration, all three dose levels) was “approximately 1.7 fold”. For the same compound, the “Total number of AEs possibly related to treatment” value ([2]; MAD study, all dose levels) was “seven”, the “Adverse events possibly-related to drug administration” value (from here on “Adverse events possibly-related”) ([2]; 100 mg) was “fatigue; also recorded: cough” and the “Adverse events possibly-related” value ([2]; 200 mg) was “eye irritation; also recorded: erythema; also recorded: dizziness; also recorded: skin rash”. The “Severe or serious AEs” value ([2]; Study II (MAD and FE parts)) was “No severe or serious AEs were reported”, the “Changes from baseline in weight, vital signs, physical examination, laboratory or ECG data” value ([2]; Study II (MAD and FE parts), any time point) was “No clinically relevant changes” and the “Safety and tolerability, overall” value ([2]; across all dose levels and dosing regimens studied) was “safe and generally well-tolerated”. The “AUC0- GMR Treatment E/D” value [3, 14] was 103.42 percentage, the “AUC0-inf GMR Treatment E/D” value [3, 14] was 102.76 percentage and the “Cmax GMR Treatment E/D” value [3, 14] was 74.53 percentage. For the same compound, the CL/F [3, 15] was 32.3 L/h, the Kel [3, 15] was 0.0796 h⁻¹ and the CL/F [3, 16] was 32.3 L/h. The Kel [3, 16] was 0.0917 h⁻¹, the AUC ([3]; Treatment D: 200 mg single oral dose, fasted, geometric least-squares mean) was 6260 ng·h/mL and the AUC(0-inf) ([3]; Treatment D: 200 mg single oral dose, fasted, geometric least-squares mean, read-out: AUC0-inf GM) was 6400 ng·h/mL. It also gave a Cmax ([3]; Treatment D: 200 mg single oral dose, fasted, geometric least-squares mean, read-out: Cmax GM) of 1020 ng/mL, an AUC(0-t) [3, 15] of 6490 ng·h/mL and a half-life [3, 15] of 9.36 h. It also gave an AUC(0-inf) ([3]; Treatment D: single oral dose 200 mg ASD-in-Capsule, fasted, mean, read-out: AUC0-inf) of 6620 ng·h/mL, a Cmax ([3]; Treatment D: single oral dose 200 mg ASD-in-Capsule, fasted, mean, read-out: Cmax) of 1050 ng/mL and a Vd/F [3, 15] of 446 L. It also gave a Tmax ([3]; Treatment D: single oral dose 200 mg ASD-in-Capsule, fasted) of 1 h, an AUC ([3]; Treatment E: 200 mg single oral dose, fed, geometric least-squares mean) of 6480 ng·h/mL and an AUC(0-inf) ([3]; Treatment E: 200 mg single oral dose, fed, geometric least-squares mean, read-out: AUC0-inf GM) of 6580 ng·h/mL. For the same compound, the Cmax ([3]; Treatment E: 200 mg single oral dose, fed, geometric least-squares mean, read-out: Cmax GM) was 764 ng/mL, the AUC(0-t) [3, 16] was 6800 ng·h/mL and the half-life [3, 16] was 8.09 h. It also gave an AUC(0-inf) ([3]; Treatment E: single oral dose 200 mg ASD-in-Capsule, fed (high-fat, high-calorie breakfast), mean, read-out: AUC0-inf) of 6900 ng·h/mL, a Cmax ([3]; Treatment E: single oral dose 200 mg ASD-in-Capsule, fed (high-fat, high-calorie breakfast), mean, read-out: Cmax) of 787 ng/mL and a Vd/F [3, 16] of 383 L. For the same compound, the Tmax ([3]; Treatment E: single oral dose 200 mg ASD-in-Capsule, fed (high-fat, high-calorie breakfast)) was 2.5 h, the “Adverse events possibly-related” value ([4]; Food effect fasting status) was “headache” and the “Adverse events possibly-related” value ([4]; Food effect fed status) was “headache”. The “Total number of AEs possibly related to treatment” value ([4]; food effect part, in one subject) was “two”.
